What all share (format): biochemical
Holding throughout (conditions): procedures of Example 14 (TR-FRET)

The target of one assay is JNK2 (Homo sapiens (Human), UniProt P45984). Nature of the assay: JNK2 TR-FRET kinase assay (Example 14). In outline: (§1)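 Two TR-FRET formats were used for each JNK isoform. In the direct one, preactivated aJNK phosphorylated EPIW-1 at about 1 mM final ATP (RT, 15 min). Both were EDTA-quenched and read by HTRF.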
For a further assay, the target named is JNK1 (Homo sapiens (Human), UniProt P45983). Nature of the assay: JNK1 TR-FRET kinase assay (Example 14). In outline: as §1
On the technique in general: TR-FRET usually uses a lanthanide donor and a delayed reading to cut background.

The next assay concerns the target JNK3 (Homo sapiens (Human), UniProt P53779). The assay can be described thus: JNK3 TR-FRET kinase assay (Example 14). In outline:
as §1

Usually IC50 stands for the concentration that gives 50% inhibition.

Each structure is given as a SMILES string. A value given as a limit tells only on which side of the number the result lay.

JNK3, sequence (P53779 whole entry, species assumed): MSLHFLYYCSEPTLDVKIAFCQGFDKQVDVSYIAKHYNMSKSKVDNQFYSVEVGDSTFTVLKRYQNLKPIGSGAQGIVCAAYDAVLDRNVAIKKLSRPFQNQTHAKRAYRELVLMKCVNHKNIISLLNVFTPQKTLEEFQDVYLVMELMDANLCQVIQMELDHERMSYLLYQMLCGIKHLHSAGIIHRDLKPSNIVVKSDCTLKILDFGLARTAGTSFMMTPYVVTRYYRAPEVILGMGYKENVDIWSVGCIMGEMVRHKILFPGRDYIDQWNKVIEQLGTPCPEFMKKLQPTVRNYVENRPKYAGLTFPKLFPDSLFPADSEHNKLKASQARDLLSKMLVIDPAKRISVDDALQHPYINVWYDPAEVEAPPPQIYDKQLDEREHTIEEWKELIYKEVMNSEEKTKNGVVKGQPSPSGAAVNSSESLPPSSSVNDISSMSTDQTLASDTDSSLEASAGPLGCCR
JNK1, sequence (P45983 other isoform, or with tags, fused parts or gaps isoform P45983-2, species assumed): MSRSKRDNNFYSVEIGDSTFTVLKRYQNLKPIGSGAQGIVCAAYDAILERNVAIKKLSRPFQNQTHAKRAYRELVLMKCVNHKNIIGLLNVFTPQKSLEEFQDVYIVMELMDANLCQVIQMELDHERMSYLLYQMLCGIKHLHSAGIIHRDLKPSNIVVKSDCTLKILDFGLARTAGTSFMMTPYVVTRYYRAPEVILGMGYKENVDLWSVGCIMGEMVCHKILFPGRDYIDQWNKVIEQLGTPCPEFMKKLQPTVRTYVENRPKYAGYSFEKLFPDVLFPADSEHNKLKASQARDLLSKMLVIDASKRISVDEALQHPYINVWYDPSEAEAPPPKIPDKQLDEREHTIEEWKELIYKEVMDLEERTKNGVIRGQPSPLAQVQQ
JNK2, sequence (P45984 whole entry, species assumed, canonical isoform): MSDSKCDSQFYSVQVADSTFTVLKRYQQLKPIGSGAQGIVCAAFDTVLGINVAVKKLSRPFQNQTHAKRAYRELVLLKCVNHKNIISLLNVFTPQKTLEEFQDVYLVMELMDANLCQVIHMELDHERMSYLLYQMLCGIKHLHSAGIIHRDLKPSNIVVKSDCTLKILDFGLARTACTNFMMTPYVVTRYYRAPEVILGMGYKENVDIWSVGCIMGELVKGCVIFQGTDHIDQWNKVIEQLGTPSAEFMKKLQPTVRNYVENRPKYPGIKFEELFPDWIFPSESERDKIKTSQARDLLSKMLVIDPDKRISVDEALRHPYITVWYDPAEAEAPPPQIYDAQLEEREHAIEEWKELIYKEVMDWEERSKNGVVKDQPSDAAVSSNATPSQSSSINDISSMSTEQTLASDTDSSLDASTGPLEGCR

`N#Cc1csc(NC(=O)CN2C(=O)CCc3ncccc32)c1-c1nc[nH]n1` [N-(4-cyano-3-(1H-1,2,4-triazol-3-yl)thiophen-2-yl)-2-(2-oxo-3,4-dihydro-1,5-naphthyridin-1(2H)-yl)acetamide]: the IC50 against JNK2, against JNK1 and against JNK3 was under 100 nM each time.

`N#Cc1csc(NC(=O)CN2C(=O)CCc3ccccc32)c1-c1ncn[nH]1` [N-(4-cyano-3-(1H-1,2,4-triazol-5-yl)thiophen-2-yl)-2-(2-oxo-3,4-dihydroquinolin-1(2H)-yl)acetamide]: the IC50 against JNK2, against JNK1 and on JNK3 was under 100 nM in each case.

Regarding `N#Cc1csc(NC(=O)Cc2cccc3cnccc23)c1-c1ncn[nH]1` [N-(4-cyano-3-(1H-1,2,4-triazol-5-yl)thiophen-2-yl)-2-(isoquinolin-5-yl)acetamide], the IC50 against JNK2, on JNK1 and against JNK3 was under 100 nM in each case.

As for `N#Cc1csc(NC(=O)Cn2c(=O)ccc3cc(C(F)(F)F)ccc32)c1-n1nccn1` [N-(4-cyano-3-(2H-1,2,3-triazol-2-yl)thiophen-2-yl)-2-(2-oxo-6-(trifluoromethyl)quinolin-1(2H)-yl)acetamide], the IC50 at JNK2, on JNK1 and on JNK3 was under 100 nM each time.

Take `N#Cc1csc(NC(=O)Cc2cccc3ncccc23)c1-c1nnc[nH]1` [N-(4-cyano-3-(4H-1,2,4-triazol-3-yl)thiophen-2-yl)-2-(quinolin-5-yl)acetamide]: the IC50 at JNK2, against JNK1 and against JNK3 was under 100 nM each time.

As to `N#Cc1csc(NC(=O)Cn2c(=O)ccc3cc(C(F)(F)F)ccc32)c1-c1ncco1` [N-(4-cyano-3-(oxazol-2-yl)thiophen-2-yl)-2-(2-oxo-6-(trifluoromethyl)quinolin-1(2H)-yl)acetamide], the IC50 against JNK2, against JNK1 and against JNK3 was under 100 nM in each case.

In the case of `N#Cc1csc(NC(=O)Cc2cccc3ncccc23)c1-c1cnccn1` [N-(4-cyano-3-(pyrazin-2-yl)thiophen-2-yl)-2-(quinolin-5-yl)acetamide], the IC50 is 100 to 10000 nM against JNK2, under 100 nM against JNK1 and under 100 nM against JNK3.

Turning to `N#Cc1csc(NC(=O)CN2C(=O)CCc3ncccc32)c1-c1nccs1` [N-(4-cyano-3-(thiazol-2-yl)thiophen-2-yl)-2-(2-oxo-3,4-dihydro-1,5-naphthyridin-1(2H)-yl)acetamide], the IC50 at JNK2, against JNK1 and against JNK3 was under 100 nM throughout.

On to `N#Cc1csc(NC(=O)Cn2c(=O)ccc3cc(C(F)(F)F)ccc32)c1-c1nccs1` [N-(4-cyano-3-(thiazol-2-yl)thiophen-2-yl)-2-(2-oxo-6-(trifluoromethyl)quinolin-1(2H)-yl)acetamide], for which the IC50 on JNK2, against JNK1 and on JNK3 was under 100 nM in each case.

On to `N#Cc1csc(NC(=O)Cn2c(=O)ccc3cc(C(F)(F)F)ccc32)c1-c1cscn1` [N-(4-cyano-3-(thiazol-4-yl)thiophen-2-yl)-2-(2-oxo-6-(trifluoromethyl)quinolin-1(2H)-yl)acetamide], for which the IC50 against JNK2, on JNK1 and against JNK3 was under 100 nM throughout.

On to `N#Cc1csc(NC(=O)Cn2c(=O)ccc3cc(C(F)(F)F)ccc32)c1-c1cncs1` [N-(4-cyano-3-(thiazol-5-yl)thiophen-2-yl)-2-(2-oxo-6-(trifluoromethyl)quinolin-1(2H)-yl)acetamide], for which the IC50 at JNK2, at JNK1 and against JNK3 was 100 to 10000 nM in each case.

On to `Cc1csc(NC(=O)Cc2ccc(OCCCN3CCCCC3)cc2)c1-c1ncn[nH]1` [N-(4-methyl-3-(1H-1,2,4-triazol-5-yl)thiophen-2-yl)-2-(4-(3-(piperidin-1-yl)propoxy)phenyl)acetamide], for which the IC50 at JNK2, against JNK1 and against JNK3 was 100 to 10000 nM throughout.
